From US20230159620A1, “COMPOSITIONS AND METHODS OF TREATMENT FOR VASCULAR DISEASES AND THROMBOSIS” (Washington University, priority 2021, published 2023)

Assays:
FGF receptors = assay: Bulk RNA sequencing of VSMCs, Fgfr transcripts; assay type: cell-based, mouse; details: RNAseq, normalized to BSA
Procedure: Plates were UV sterilized before adding cells. Primary VSMCs were collected, resuspended in DMEM/F12 media containing 10% FBS, plated on precoated, blocked wells, and incubated for 8 hr to ensure complete cell adhesion. Media was replaced with fresh DMEM/F12 containing 1% FBS and incubated for 12 hr before collection. RNA was collected using RNeasy® Mini Kit (#74106, Qiagen). Atherosclerotic aortic arches (including the aortic root, arch, and the proximal regions of its branching vessels) from mice were used as the source of RNA for the later RNAseq experiment. […]
Samples were prepared according to the library kit manufacturer's protocol, indexed, pooled, and sequenced on an Illumina HiSeq. Basecalls and demultiplexing were performed with Illumina's bcl2fastq software and a custom python demultiplexing program with a maximum of one mismatch in the indexing read. RNA-seq reads were then aligned to the Ensembl release 76 primary assembly with STAR version 2.5.1a. Gene counts were derived from the number of uniquely aligned unambiguous reads by Subread:featureCount version 1.4.6-p5 2). […] Sequencing performance was assessed for the total number of aligned reads, the total number of uniquely aligned reads, and the features detected. The ribosomal fraction, known junction saturation, and read distribution over known gene models were quantified with RSeQC version 2.6.2. […]

AKT [1] = assay: AKT signaling immunoblot, platelets; assay type: cell-based, human; details: platelets, vs BSA
Procedure: Prior to performing signaling assays, cells were trypsinized, centrifuged, suspended in basal media, and counted using an automated hemocytometer. Cells were further diluted in basal media to an assay-dependent concentration. Cells were then incubated with gentle agitation for 60 minutes to prevent cell attachment and reduce basal signaling. PP1, Dynasore, MK-2206, and Rapamycin were diluted in DMSO and used in assay concentrations of 10 μM, 100 μM, 10 μM, and respectively, for the final 20-30 minutes of incubation in basal media. An equal volume of DMSO was used as the negative control condition. […] 1 μg Pearl 1 polyclonal antibody was added as a specific positive control. 20% growth media or 2% fetal bovine serum, labeled “Serum” in figures, was added as a non-specific positive control. The cells were centrifuged at 300G for 3 minutes with the exception of platelets, which were centrifuged at 500G for 5 minutes. The cells were then incubated at 37° C. for 8-45 minutes, depending on the cell type and pathway of interest. The cells were lysed in radioimmunoprecipitation buffer (RIPA) containing a cocktail of protease and phosphatase inhibitors and universal nuclease. Immunoblots were performed by standard techniques, as briefly follows. Protein content was determined using a bicinchoninic acid assay with BSA standards (#23225, Pierce BCA Protein Assay Kit). Cell lysates were then reduced with dithiothreitol (DTT) in lithium dodecyl sulfate (LDS) sample buffer (#NP0007, Invitrogen). Equal protein amounts were added to polyacrylamide gels (#4561086, BioRad) and electrophoresed prior to transferring to a nitrocellulose or polyvinylidene fluoride membrane (#1620260, BioRad). Membranes were blocked in 5% BSA/Tris-buffered saline (TBS) with 0.1% Tween 20 for 30 minutes. The indicated primary antibodies were incubated with the pre-blocked membranes overnight at 4° C. Membranes were washed with TBS with 0.1% Tween 20, probed with fluorescent secondary antibodies, and imaged. β-actin or β-tubulin served as a loading control.
Whole blood was collected by venipuncture into either heparin vacutainers (BD, Franklin Lakes) for whole blood experiments or acid-citrate-dextrose (ACD) vacutainers (BD, Franklin Lakes) for platelet isolation studies. For platelet isolation, samples were supplemented with apyrase (Sigma, St Louis) and prostaglandin E1 (Cayman Chemical, Ann Arbor), and platelet-rich plasma (PRP) was prepared by centrifugation of the ACD whole blood for 20 minutes at 200G. Platelets were isolated from the PRP by centrifugation for 10 minutes at 1000G and resuspended in modified Tyrode's buffer twice at desired platelet counts and kept at 37° C. until used. Isolated platelets were used within 2 hours of preparation.

AKT [2] = assay: AKT signaling immunoblot, hCASMCs; assay type: cell-based, human; details: relative to BSA controls
Procedure: Cellular reagents were purchased from various commercial vendors. Primary human umbilical vein endothelial cells (HUVECs) were obtained from Cell Applications Inc. and cultured according to the manufacture's recommendations. Primary human coronary artery smooth muscle cells were obtained from Invitrogen and were cultured according to the manufacture's recommendations. 293T cells were obtained from ATCC and were cultured according to the manufacture's recommendations. Mouse primary smooth muscle cells were obtained and cultured as described previously. Predesigned Silencer Select siRNA constructs targeting Pearl 1 and negative control siRNA were obtained from ThermoFisher. Transfections were performed using RNAiMAX or Lipofectamine 3000 transfection reagents according to the manufacturer's protocols. Cells were used for signaling assays 48 hours after transfection; efficient Pearl 1 knockdown or Pearl 1 overexpression was confirmed by immunoblot assays.
Prior to performing signaling assays, cells were trypsinized, centrifuged, suspended in basal media, and counted using an automated hemocytometer. Cells were further diluted in basal media to an assay-dependent concentration. […] Protein content was determined using a bicinchoninic acid assay with BSA standards (#23225, Pierce BCA Protein Assay Kit). […]

Procedure for THP-1 cells: 2,000 cells were added to each well and incubated for 8 hr to assure complete cell adhesion. […] Adhesion assays were performed in precoated 96-well plates blocked with 100 mg ml-l BSA. Blocking conditions were empirically derived to minimize non-specific cell adhesion. After 5 min (for THP-1 cells) or 15 min (for VSMCs) incubation, non-adhered cells were removed by gently centrifuging the plates upside down. VSMCs were counted manually and THP-1 cells were counted by automated microscopy after staining cells with DAPI.

## SVEP1: recombinant murine SVEP1 extracellular matrix protein with Myc and poly-histidine tag, expressed in 293F cells
FGF receptors
  expression of FGF receptors: increases expression of FGF receptors
AKT [1]
  AKT phosphorylation (pAKT): induced AKT phosphorylation
AKT [2]
  AKT signaling: activated
THP-1 cells
  adhesion of THP-1 cells: adhered to SVEP1 in a dose-dependent manner
